Results on five compounds are retold here after publication PMC5381078, “Carboxylate derivatives of tributyltin (IV) complexes as anticancer and antileishmanial agents” (DARU Journal of Pharmaceutical Sciences, 2017).

Series [1] has as its system axenic log-phase promastigotes. Also noted: method as in PMID 19546361. The settings on record: cited from earlier work.
Series [2] relates to cellular metacyclic promastigotes. Also noted: method as in PMID 19546361. The settings on record: cited from earlier work.
A further series relates to THP-1 cell line. Briefly: Cytotoxicity against THP-1 cell line (MTT assay). The class given is cell-based, human. The settings on record: 20 μg/mL, 72 h. As to the method: Cytotoxicity of tributyltin (IV) compounds against THP-1 cell line was determined by 3-(4,5-dimethylthiazol-2-yl)-2,5-diphenyl tetrazolium bromide (MTT) assay. THP-1 cells were cultured in complete growth medium comprising RPMI-1640 (pH 7.4) supplemented with 2.2 g/L NaHCO3 and 10% v/v heat inactivated fetal bovine serum (HIFBS). An aliquot of 20 μL of samples in 1% DMSO in PBS and 180 μL of THP-1 cells were mixed in 96-well plate. Cells were added at an assay density of 1 × 10^4 cells/mL whereas sample/standard was added to achieve the final concentration of 20 μg/mL. The plate was incubated at 37 °C for 72 h in humidified 5% carbon dioxide incubator (Panasonic, Japan MCO-18 AC-PE). Vincristine and 1% DMSO in PBS were used as positive and negative controls respectively. After incubation, 20 μL of pre-filter sterilized MTT solution (4 mg/mL in distilled water) was added in plates and incubated for 4 h at 37 °C in CO2 incubator. Later, colored formazan crystals were separated by removing supernatant and dissolved in 100 μL of DMSO. Reaction was allowed to stand for 1 h to ensure complete dissolution and absorbance was measured at 540 nm using microplate reader (Biotech USA, Elx 800).
On the technique in general: Formazan colour is commonly taken as a measure of viable cells.

In a further series the test system is isolated lymphocytes. Put plainly: Cytotoxicity against isolated lymphocytes (MTT assay). The class given is cell-based, human. The settings on record: 24 h; for Isolated lymphocytes % growth inhibition: 20 μg/mL. The protocol:
Lymphocytes were isolated using previously described protocol with some modifications. Informed consent was obtained from volunteers and procedure was conducted according to international ethical guidelines after gaining approval from the ethical committee of the Quaid-i-Azam University. A volume of 3 mL of blood was obtained from a healthy donor by venipuncture and diluted (1:1) with PBS. It was layered over 2 mL Histopaque-1077 and centrifuged at 800 × g for 20 min. The buffy coat was aspirated into 5 mL of PBS and centrifuged at […] for 4 min to pellet the lymphocytes. The pellet was suspended in 1 mL of RPMI-1640 and cell density was adjusted to get 1 × 10^5 cells/mL. For cytotoxicity determination, 20 μL of samples (20 μg/mL) or vincristine or 1% DMSO in PBS and 180 μL of lymphocyte suspension were incubated in 96-well plate at 37 °C for 24 h in humidified 5% carbon dioxide incubator (Panasonic, Japan MCO-18 AC-PE). Phytohaemagglutinin (PHA) was added in medium to stimulate lymphocyte growth. Afterwards, MTT assay was done as described above. IC50 values were determined using 3-fold dilutions of the samples.

Series [3] deals with promastigotes of Leishmania tropica kwh 23. Briefly: Antileishmanial activity (MTT assay). In kind it is cell-based. The conditions noted are these: 72 h; for Antileishmanial % growth inhibition (mortality, lethality): 20 μg/mL; for Antileishmanial LC50: MTT. The protocol: Antileishmanial activity against the promastigotes of Leishmania tropica kwh 23 was evaluated by a quantitative colorimetric assay using 3-(4,5-dimethylthiazol-2-yl)-2, 5-diphenyl tetrazolium bromide (MTT) with minor modifications. […] […] Negative control wells contained 1% DMSO in PBS. All samples were run in triplicate. Afterwards, plates were incubated for 4 h at 24 °C with 20 μL of MTT (4 mg/mL in distilled water) to determine the cell viability. Supernatant from each well was carefully removed leaving behind formazan crystals. Colored formazan crystals were dissolved in 100 μL of DMSO by setting those aside for 1 h to ensure complete dissolution. Cell viability was estimated by measuring absorbance at 540 nm using microplate reader and percentage growth inhibition was calculated.

For series [4], the system named is Leishmania tropica kwh 23 promastigotes. Briefly: ROS mediated antileishmanial activity (NaN3 / mannitol scavengers). In kind it is cell-based. The settings on record: for Reduction of antileishmanial activity in the presence of NaN3: NaN3 0.1 mM; for Reduction of antileishmanial activity in the presence of mannitol: mannitol 1 mM. As to the method: Leishmania tropica kwh 23 promastigotes were treated in three groups. First group was exposed to samples along with 0.1 mM sodium azide (NaN3), second group to samples with 1 mM mannitol and third group comprised of all controls. In third group, promastigotes were treated in different wells with samples only (sample control), 1% DMSO in PBS only (negative control-I), amphotericin B only (positive control), 0.1 mM NaN3 only (negative control-II) and 1 mM mannitol only (negative control-III). Plates were incubated followed by MTT assay described above.

The test system is the same in series [5]. Briefly: Photosensitizing effect against leishmania. In kind it is cell-based. The settings on record: for Photosensitizing effect % growth inhibition, Sunlight with IR filter: 15 min; for Photosensitizing effect % growth inhibition, Sunlight: 15 min sunlight. As to the method:
Photosensitizing effect of tributyltin (IV) compounds was determined in three parallel groups. Samples and controls were exposed for 15 min to sunlight (168 W/m^2 of sun intensity) or sunlight with IR filter or dark conditions. The relative intensity of sunlight was measured by a CCD spectrometer (Ocean Optics, model HR4000). Later, plates were incubated at 25 °C for 72 h and cell viability was determined by MTT assay as given above. In this assay, samples were tested at concentrations showing less than 55% inhibition in primary antileishmanial assay to exclude false positive.

For a further series, the system named is Streptomyces 85E. Put plainly: Protein kinase inhibition assay (Streptomyces disc assay). In kind it is cell-based. The settings on record: for ZOI CZ (clear zone): (-) shows no ZOI; for ZOI BZ (bald zone): BZ indicative of PK inhibition; for MIC for PK inhibition: minimum inhibitory concentration. The protocol:
Protein kinase inhibitory activity of the tributyltin (IV) compounds was measured against Streptomyces 85E strain using previously described protocol. Culture of Streptomyces 85E was refreshed in tryptic soy broth and 100 μL of this was swabbed on sterile ISP4 medium under aseptic conditions. […] Diameter (mm) of zone of inhibition (ZOI) around all samples and controls was measured as clear zone (CZ) and bald zone (BZ). […] BZ is indicative of PK inhibition.

The test system of a further series is HepG2 cell line. Put plainly: Cytotoxicity against HepG2 cell line (SRB assay). The class given is cell-based, human. The conditions noted are these: 72 h; for HepG2 % growth inhibition: 20 μg/mL; for HepG2 IC50: 3-fold dilutions. As to the method:
Cytotoxicity was further evaluated against HepG2 cell line by sulforhodamine B (SRB) colorimetric assay. Dulbecco's Modified Eagle Medium (DMEM) supplemented with 10% FBS, 100 μg/mL streptomycin sulfate, 100 IU/mL penicillin G sodium and 0.25 μg/mL amphotericin B was used to culture HepG2 cells in CO2 (5%) incubator (Panasonic, Japan MCO-18 AC-PE) at 37 °C. An aliquot of 20 μL (1% DMSO in PBS) of samples was added to 180 μL of cell culture at an assay density of 1x10^5 cells/mL in 96-well plate. The plate was incubated at 37 °C for 72 h in CO2 incubator. Final concentration of compounds/standard was 20 μg/mL. Doxorubicin and 1% v/v DMSO in PBS ere used as positive and negative controls respectively. An equivalent number of cells in twelve wells of 96-well plate were incubated for 1 h at 37 °C and labeled as day zero control. Later, cells were fixed by adding 50 μL of cold 20% w/v TCA for 1 h at 4 °C. These were washed with tap water, air dried and stained with 50 μL of 0.057% w/v SRB in 1% v/v acetic acid for 30 min at room temperature. Cells were again washed with 1% v/v acetic acid, dried overnight and 200 μL of 10 mM Tris base (pH 10) was used to solubilize the bound dye for 1 h. Absorbance was measured at 515 nm using a microplate reader. Percentage of growth inhibition was calculated as: % inhibition = 100 – [(As – Ao) / (An – Ao) × 100], where, Ao, As and An are absorbance of day zero control, samples and negative control respectively. IC50 values were determined using 3-fold dilutions of the samples.
For orientation: In SRB staining, fixed cells bind dye roughly in proportion to their protein.

Usually IC50 stands for the midpoint of a concentration-inhibition curve. As usually defined, the mortality is the percentage killed.

Consider `O.O.O.O.O.O.O.O.O.O=C([O-])[C@@H]1[O][Sb](=[O])([O][Sb]2(=[O])[O][C@H]([C@H](O)CO)[C@H](O)[C@H](C(=O)[O-])[O]2)[O][C@H]([C@H](O)CO)[C@@H]1O.[Na+].[Na+].[Na+]` (stereo partly shown) [sodium stibogluconate], for which the IC50 in series [1] is 64 µg/mL; in series [2], 22 µg/mL.
Take `CCC[CH2][Sn]([CH2]CCC)([CH2]CCC)[O]C(=O)/C=C\C(=O)NC1CCCCC1` [Ch-442, tributylstannyl (Z)-4-(cyclohexylamino)-4-oxobut-2-enoate]: the “THP-1 % growth inhibition” value in the series with THP-1 cell line is recorded as 44.6 ± 1.18%. Also, in the series on isolated lymphocytes, the “Isolated lymphocytes IC50” value is 14.9 ± 0.25 µg/mL. Moreover, in series [3], the “Antileishmanial % growth inhibition (mortality, lethality)” value (shortened to “Antileishmanial % growth inhibition”) is recorded as 95.8 ± 2.16 % and the “Antileishmanial LC50” value came to 0.088 ± 0.009 µg/mL. For the same compound, in series [4], the “Reduction of antileishmanial activity in the presence of NaN3” value is 22% and the “Reduction of antileishmanial activity in the presence of mannitol” value is 38.2%. Further, in series [5] (0.092 μg/mL), the “Photosensitizing effect % growth inhibition, Control” value amounted to 46.1 ± 0.56%; the “Photosensitizing effect % growth inhibition, Dark” value is on record as 44.18 ± 1.16%; the “Photosensitizing effect % growth inhibition, Sunlight with IR filter” value was determined as 49.25 ± 0.63%; the “Photosensitizing effect % growth inhibition, Sunlight” value came to 40.5 ± 0.12%. Besides, in the series with Streptomyces 85E (6.25 μg/disc), the “ZOI CZ (clear zone)” value came to 10 ± 0.74 mm and the “ZOI BZ (bald zone)” value amounted to 29 ± 0.78 mm. Moreover, the “ZOI CZ (clear zone)” value with Streptomyces 85E (50 μg/disc) is 40 ± 1.17 mm. The “MIC for PK inhibition” value with Streptomyces 85E is reported as 0.391 ± 0.006 μg/disc.
For `CCC[CH2][Sn]([CH2]CCC)([CH2]CCC)[O]C(=O)/C=C\C(=O)Nc1ccccc1` [Ch-458, tributylstannyl (Z)-4-oxo-4-(phenylamino)but-2-enoate], in the series with HepG2 cell line, the “HepG2 % growth inhibition” value is 98.7 ± 3.56 % and the “HepG2 IC50” value was 1.58 ± 0.07 µg/mL. In the series on THP-1 cell line, the “THP-1 % growth inhibition” value is reported as 21.2 ± 1.57%. Also, in the series on isolated lymphocytes, the “Isolated lymphocytes % growth inhibition” value is on record as 14.8 ± 0.13ǂ %. In [3], the “Antileishmanial % growth inhibition” value was 97.8 ± 1.23 % and the “Antileishmanial LC50” value was found to be 0.256 ± 0.064 µg/mL. Besides, in series [5] (0.092 μg/mL), the “Photosensitizing effect % growth inhibition, Control” value turned out to be 35.2 ± 1.78%; the “Photosensitizing effect % growth inhibition, Dark” value came to 36.7 ± 0.74%; the “Photosensitizing effect % growth inhibition, Sunlight with IR filter” value is listed as 30.25 ± 0.17%; the “Photosensitizing effect % growth inhibition, Sunlight” value was 42.7 ± 1.35%. In the series with Streptomyces 85E (6.25 μg/disc), the “ZOI CZ (clear zone)” value came to 12 ± 1.25 mm and the “ZOI BZ (bald zone)” value came out at 31 ± 1.37 mm. Moreover, in the series on Streptomyces 85E (50 μg/disc), the “ZOI CZ (clear zone)” value is given as 30 ± 1.2 mm. Moreover, the “MIC for PK inhibition” value against Streptomyces 85E is on record as 0.195 ± 0.001 μg/disc.
For the compound `CCC[CH2][Sn]([CH2]CCC)([CH2]CCC)[O]C(=O)CCC(=O)Nc1ccc(C(=O)[O][Sn]([CH2]CCC)([CH2]CCC)[CH2]CCC)cc1` [Ch-448, tributylstannyl 4-(4-oxo-4-((tributylstannyl)oxy)butanamido)benzoate], in the series with HepG2 cell line, the “HepG2 % growth inhibition” value turned out to be 97.1 ± 2.34 % and the “HepG2 IC50” value was determined as 3.45 ± 0.63 µg/mL. The “THP-1 % growth inhibition” value in the series with THP-1 cell line is given as 43.1 ± 2.29%. Also, the “Isolated lymphocytes % growth inhibition” value in the series on isolated lymphocytes is 23.6 ± 1.07ǂ %. In addition, in [3], the “Antileishmanial % growth inhibition” value came out at 96.5 ± 2.67 % and the “Antileishmanial LC50” value was 0.576 ± 0.088 µg/mL. In series [5] (0.55 μg/mL), the “Photosensitizing effect % growth inhibition, Control” value was determined as 54.65 ± 2.75%; the “Photosensitizing effect % growth inhibition, Dark” value is on record as 50.16 ± 1.19%; the “Photosensitizing effect % growth inhibition, Sunlight with IR filter” value worked out at 52.9 ± 1.17%; the “Photosensitizing effect % growth inhibition, Sunlight” value worked out at 49.7 ± 0.89%. In addition, the “ZOI BZ (bald zone)” value in the series on Streptomyces 85E (6.25 μg/disc) is on record as 25 ± 1.75 mm. Besides, the “ZOI CZ (clear zone)” value in the series on Streptomyces 85E (50 μg/disc) is on record as 31 ± 1.05 mm. For the same compound, in the series with Streptomyces 85E, the “MIC for PK inhibition” value is given as 0.781 ± 0.002 μg/disc.
Regarding `C[C@@H]1[C@H](O)[C@@H](C)/C=C/C=C/C=C/C=C/C=C/C=C/C=C/[C@H](O[C@@H]2O[C@H](C)[C@@H](O)[C@H](N)[C@@H]2O)C[C@@H]2O[C@](O)(C[C@@H](O)C[C@@H](O)[C@H](O)CC[C@@H](O)C[C@@H](O)CC(=O)O[C@H]1C)C[C@H](O)[C@H]2C(=O)O` [Amphotericin B, reference compound], the mortality at 20 µg/mL in [3] (Leishmania tropica, read-out: Antileishmanial % growth inhibition (mortality, lethality)) is 100%. In [4], the “Reduction of antileishmanial activity in the presence of NaN3” value is reported as 16% and the “Reduction of antileishmanial activity in the presence of mannitol” value amounted to 10%.
